Laboratory results as given in PubChem BioAssay AID2060505 (Molecular Pharmacology Branch, DTP, NCI, 2025).

Test system: 633275-114-R-J1-PDC complex spheroids, viability
Experiment: Anticancer human tumor 633275-114-R-J1-PDC patient-derived endometrial adenocarcinoma cell line growth inhibition [GQUAD]
Settings: for IC50: curve of first compound; for viability, T/C: stronger effect = lower value; active = viability on the fitted dose curve at most 10% of control; inactive = the rest
Outline: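 Multi-cell-type spheroids of tumor cells with HUVEC and mesenchymal stem cells, treated with drug combinations. Concentrations descend in half-log steps from near clinical Cmax, or from 10 microM where Cmax is unknown; viability read-out.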

[1] = second compound 0.0316 µM, first compound 0.0316 µM
[2] = second compound 0.0316 µM, first compound 0.1 µM
[3] = second compound 0.0316 µM, first compound 0.316 µM
[4] = second compound 0.0316 µM, first compound 1 µM
[5] = second compound 0.0316 µM, first compound 3.16 µM
[6] = second compound 0.0316 µM, first compound 10 µM
[7] = second compound 0.1 µM, first compound 0.0316 µM
[8] = second compound 0.1 µM, first compound 0.1 µM
[9] = second compound 0.1 µM, first compound 0.316 µM
[10] = second compound 0.1 µM, first compound 1 µM
[11] = second compound 0.1 µM, first compound 3.16 µM
[12] = second compound 0.1 µM, first compound 10 µM
[13] = second compound 0.316 µM, first compound 0.0316 µM
[14] = second compound 0.316 µM, first compound 0.1 µM
[15] = second compound 0.316 µM, first compound 0.316 µM
[16] = second compound 0.316 µM, first compound 1 µM
[17] = second compound 0.316 µM, first compound 3.16 µM
[18] = second compound 0.316 µM, first compound 10 µM
[19] = second compound 1 µM, first compound 0.0316 µM
[20] = second compound 1 µM, first compound 0.1 µM
[21] = second compound 1 µM, first compound 0.316 µM
[22] = second compound 1 µM, first compound 1 µM
[23] = second compound 1 µM, first compound 3.16 µM
[24] = second compound 1 µM, first compound 10 µM
[25] = second compound 3.16 µM, first compound 0.0316 µM
[26] = second compound 3.16 µM, first compound 0.1 µM
[27] = second compound 3.16 µM, first compound 0.316 µM
[28] = second compound 3.16 µM, first compound 1 µM
[29] = second compound 3.16 µM, first compound 3.16 µM
[30] = second compound 3.16 µM, first compound 10 µM
[31] = second compound 10 µM, first compound 0.0316 µM
[32] = second compound 10 µM, first compound 0.1 µM
[33] = second compound 10 µM, first compound 0.316 µM
[34] = second compound 10 µM, first compound 1 µM
[35] = second compound 10 µM, first compound 3.16 µM
[36] = second compound 10 µM, first compound 10 µM
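Also: spheroids exposed to the agents for seven days.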
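For viability, T/C in this document: percent of DMSO vehicle control viability which is 100%.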

C=CCn1c(=O)c2cnc(Nc3ccc(N4CCN(C)CC4)cc3)nc2n1-c1cccc(C(C)(C)O)n1 + CN(C)c1ccc(Nc2c3ccc(NC(=O)CCN4CCCC4)cc3nc3cc(NC(=O)CCN4CCCC4)ccc23)cc1
582 nM: IC50 (second compound 0.0316 µM)
inactive: viability, T/C [1] 103% | viability, T/C [2] 84.3% | viability, T/C [3] 69.8% | viability, T/C [4] 33.9% | viability, T/C [5] 19.5% | viability, T/C [6] 14.8% | viability, T/C [7] 106% | viability, T/C [8] 92.5% | viability, T/C [9] 82.1% | viability, T/C [10] 34.2% | viability, T/C [11] 20.8% | viability, T/C [12] 14.1% | viability, T/C [13] 105% | viability, T/C [14] 97% | viability, T/C [15] 63.8% | viability, T/C [16] 37.6% | viability, T/C [17] 20.6% | viability, T/C [18] 15.6% | viability, T/C [19] 93.4% | viability, T/C [20] 85% | viability, T/C [21] 71% | viability, T/C [22] 36.9% | viability, T/C [23] 19.8% | viability, T/C [24] 15.7% | viability, T/C [25] 87.2% | viability, T/C [26] 66.8% | viability, T/C [27] 55.8% | viability, T/C [28] 34.8% | viability, T/C [29] 29.4% | viability, T/C [30] 16.6% | viability, T/C [31] 32.2% | viability, T/C [32] 23.9% | viability, T/C [33] 22.2% | viability, T/C [34] 16.9% | viability, T/C [35] 14.9%
692 nM: IC50 (second compound 0.1 µM)
586 nM: IC50 (second compound 0.316 µM)
active: viability, T/C [36] 7.51%
< 31.6 nM: IC50 (second compound 10 µM)
641 nM: IC50 (second compound 1 µM)
390 nM: IC50 (second compound 3.16 µM)

CC(C)(O)C1CCC(Nc2ccc3ncc(-c4cccc(C(F)(F)F)c4)n3n2)CC1 (stereo not drawn) + CN(C)c1ccc(Nc2c3ccc(NC(=O)CCN4CCCC4)cc3nc3cc(NC(=O)CCN4CCCC4)ccc23)cc1
1850 nM: IC50 (second compound 0.0316 µM)
2090 nM: IC50 (second compound 0.316 µM)
active: viability, T/C [36] 6.08%
1990 nM: IC50 (second compound 0.1 µM)
inactive: viability, T/C [1] 102% | viability, T/C [2] 96.8% | viability, T/C [3] 90.1% | viability, T/C [4] 72.2% | viability, T/C [5] 28.8% | viability, T/C [6] 32.2% | viability, T/C [7] 94% | viability, T/C [8] 99.9% | viability, T/C [9] 88.2% | viability, T/C [10] 70.4% | viability, T/C [11] 32.8% | viability, T/C [12] 39.7% | viability, T/C [13] 97.6% | viability, T/C [14] 87.7% | viability, T/C [15] 92.6% | viability, T/C [16] 76.1% | viability, T/C [17] 32.7% | viability, T/C [18] 37.8% | viability, T/C [19] 94.6% | viability, T/C [20] 97.2% | viability, T/C [21] 88.3% | viability, T/C [22] 73% | viability, T/C [23] 27.8% | viability, T/C [24] 28.2% | viability, T/C [25] 85.4% | viability, T/C [26] 69.2% | viability, T/C [27] 81.9% | viability, T/C [28] 59.5% | viability, T/C [29] 19.1% | viability, T/C [30] 20.4% | viability, T/C [31] 33.1% | viability, T/C [32] 32.3% | viability, T/C [33] 23.7% | viability, T/C [34] 21.1% | viability, T/C [35] 7.71%
1820 nM: IC50 (second compound 1 µM)
< 31.6 nM: IC50 (second compound 10 µM)
1310 nM: IC50 (second compound 3.16 µM)

COc1ncnc(C2CC2)c1-c1ncc2cnn(Cc3ccc(-c4nc(C(F)(F)F)cn4C(C)C)cc3)c2n1 + CN(C)c1ccc(Nc2c3ccc(NC(=O)CCN4CCCC4)cc3nc3cc(NC(=O)CCN4CCCC4)ccc23)cc1
< 31.6 nM: IC50 (second compound 10 µM)
inactive: viability, T/C [1] 102% | viability, T/C [2] 102% | viability, T/C [3] 84.5% | viability, T/C [4] 101% | viability, T/C [5] 102% | viability, T/C [6] 95.4% | viability, T/C [7] 101% | viability, T/C [8] 90.8% | viability, T/C [9] 88.4% | viability, T/C [10] 99% | viability, T/C [11] 93.3% | viability, T/C [12] 87.3% | viability, T/C [13] 86.8% | viability, T/C [14] 103% | viability, T/C [15] 86.8% | viability, T/C [16] 94.5% | viability, T/C [17] 97.2% | viability, T/C [18] 94% | viability, T/C [19] 89.3% | viability, T/C [20] 97.9% | viability, T/C [21] 92.6% | viability, T/C [22] 69.2% | viability, T/C [23] 96.6% | viability, T/C [24] 92.3% | viability, T/C [25] 79.8% | viability, T/C [26] 81.7% | viability, T/C [27] 81.2% | viability, T/C [28] 76.1% | viability, T/C [29] 84.4% | viability, T/C [30] 67.8% | viability, T/C [31] 32.7% | viability, T/C [32] 30.2% | viability, T/C [33] 31.1% | viability, T/C [34] 27.2% | viability, T/C [35] 26.6% | viability, T/C [36] 12.8%
> 10000 nM: IC50 (second compound 0.0316 µM) | IC50 (second compound 0.1 µM) | IC50 (second compound 0.316 µM) | IC50 (second compound 1 µM) | IC50 (second compound 3.16 µM)

O=C(NO)c1cnc(N2CCN(S(=O)(=O)c3ccc4ccccc4c3)CC2)nc1 + CN(C)c1ccc(Nc2c3ccc(NC(=O)CCN4CCCC4)cc3nc3cc(NC(=O)CCN4CCCC4)ccc23)cc1
138 nM: IC50 (second compound 3.16 µM)
170 nM: IC50 (second compound 0.316 µM)
150 nM: IC50 (second compound 0.1 µM)
< 31.6 nM: IC50 (second compound 10 µM)
158 nM: IC50 (second compound 1 µM)
active: viability, T/C [6] 4.89% | viability, T/C [11] 10.5% | viability, T/C [12] 5.36% | viability, T/C [18] 4.98% | viability, T/C [24] 5.49% | viability, T/C [29] 9.85% | viability, T/C [30] 2.65% | viability, T/C [34] 6.49% | viability, T/C [35] 1.21% | viability, T/C [36] 0.19%
inactive: viability, T/C [1] 75.1% | viability, T/C [2] 64.9% | viability, T/C [3] 40.4% | viability, T/C [4] 22.8% | viability, T/C [5] 11.5% | viability, T/C [7] 68.3% | viability, T/C [8] 58.4% | viability, T/C [9] 35.5% | viability, T/C [10] 19.6% | viability, T/C [13] 80.9% | viability, T/C [14] 62% | viability, T/C [15] 35.7% | viability, T/C [16] 20.1% | viability, T/C [17] 12.1% | viability, T/C [19] 70.1% | viability, T/C [20] 58.3% | viability, T/C [21] 37.9% | viability, T/C [22] 18.3% | viability, T/C [23] 12.2% | viability, T/C [25] 62.6% | viability, T/C [26] 55% | viability, T/C [27] 37.5% | viability, T/C [28] 15.6% | viability, T/C [31] 30.4% | viability, T/C [32] 26.4% | viability, T/C [33] 16.3%
206 nM: IC50 (second compound 0.0316 µM)
